Reference: patent EP2236511A2, “LIGANDS OF ALPHA-ADRENOCEPTORS AND OF DOPAMINE, HISTAMINE, IMIDAZOLINE AND SEROTONIN RECEPTORS AND THE USE THEREOF” (priority 2007, dated 2009)

Legend:
[1] = target: T1, serotonin receptor 5-HT1B (Rattus norvegicus, UniProt P28564); assay: Radioligand binding to serotonin receptor 5-HT1B ([125I] cyanopindolol, rat brain cortex membranes)
T1 construct: membrane species are prepared from rat brains (Wistar) by homogenization of species of rat brain-cortices; from tissue; host or cells: rat (Wistar) brain cortex
T1 sequence (P28564 whole entry): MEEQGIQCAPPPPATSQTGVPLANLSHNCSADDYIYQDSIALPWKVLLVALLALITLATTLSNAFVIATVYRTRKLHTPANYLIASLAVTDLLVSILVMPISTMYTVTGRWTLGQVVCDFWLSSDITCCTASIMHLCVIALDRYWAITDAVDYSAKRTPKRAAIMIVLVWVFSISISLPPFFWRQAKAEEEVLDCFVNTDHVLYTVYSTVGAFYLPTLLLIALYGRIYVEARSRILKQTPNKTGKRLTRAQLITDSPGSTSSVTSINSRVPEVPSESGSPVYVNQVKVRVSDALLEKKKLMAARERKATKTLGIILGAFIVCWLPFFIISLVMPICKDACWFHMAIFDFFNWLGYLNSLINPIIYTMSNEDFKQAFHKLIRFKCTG
Source text: Serotonin is used as positive control.

recombinant human 5-HT1A = target: T2, recombinant human 5-HT1A (Homo sapiens, UniProt P08908); assay: Radioligand binding to serotonin receptor 5-HT1A ([3H] 8-OH-DPAT, CHO membranes); conditions: read-out: 5-HT1A % inhibition
T2 construct: expressed in transfected cells; host or cells: CHO
T2 sequence (P08908 1-422): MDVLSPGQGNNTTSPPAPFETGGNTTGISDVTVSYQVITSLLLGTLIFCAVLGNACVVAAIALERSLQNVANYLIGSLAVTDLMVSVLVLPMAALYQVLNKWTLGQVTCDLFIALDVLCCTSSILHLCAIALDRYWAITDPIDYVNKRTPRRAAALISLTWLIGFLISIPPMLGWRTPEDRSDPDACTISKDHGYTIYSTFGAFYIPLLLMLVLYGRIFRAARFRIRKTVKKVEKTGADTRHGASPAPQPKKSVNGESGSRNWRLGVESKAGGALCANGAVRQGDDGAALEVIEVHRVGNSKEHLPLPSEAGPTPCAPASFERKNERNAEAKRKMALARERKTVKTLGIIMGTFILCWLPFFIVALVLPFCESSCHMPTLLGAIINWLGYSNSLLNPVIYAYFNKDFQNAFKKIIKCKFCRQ
Source text: J Pharmacol Exp Ther. 306(1): 301-309, 2003]. […] Metergoline is used as positive control.

[2] = target: T3, recombinant human 5-HT2B receptor (Homo sapiens, UniProt P41595); assay: Radioligand binding to serotonin receptor 5-HT2B ([3H] Lysergic acid diethylamide, CHO-K1 membranes)
T3 construct: expressed in transfected cells; host or cells: CHO-K1
T3 sequence (P41595 whole entry): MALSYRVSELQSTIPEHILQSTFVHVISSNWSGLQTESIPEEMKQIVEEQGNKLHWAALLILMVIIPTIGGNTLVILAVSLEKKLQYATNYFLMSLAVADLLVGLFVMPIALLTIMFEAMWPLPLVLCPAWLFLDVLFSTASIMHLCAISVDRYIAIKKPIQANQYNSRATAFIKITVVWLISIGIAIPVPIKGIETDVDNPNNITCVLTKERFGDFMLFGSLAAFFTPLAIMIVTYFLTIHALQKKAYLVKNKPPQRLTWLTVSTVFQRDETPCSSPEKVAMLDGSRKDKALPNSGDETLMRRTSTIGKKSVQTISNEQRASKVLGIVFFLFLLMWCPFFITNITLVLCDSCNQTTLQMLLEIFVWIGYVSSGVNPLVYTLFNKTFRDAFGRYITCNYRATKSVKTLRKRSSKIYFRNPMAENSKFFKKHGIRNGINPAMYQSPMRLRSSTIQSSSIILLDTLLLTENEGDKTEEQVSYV

[3] = target: T4, recombinant human 5-HT6 receptor (Homo sapiens, UniProt P50406); assay: Radioligand binding to serotonin receptor 5-HT6 ([3H] Lysergic acid diethylamide, HeLa membranes); conditions: read-out: 5-HT6 % inhibition
T4 construct: expressed in transfected cells; host or cells: HeLa
T4 sequence (P50406 whole entry): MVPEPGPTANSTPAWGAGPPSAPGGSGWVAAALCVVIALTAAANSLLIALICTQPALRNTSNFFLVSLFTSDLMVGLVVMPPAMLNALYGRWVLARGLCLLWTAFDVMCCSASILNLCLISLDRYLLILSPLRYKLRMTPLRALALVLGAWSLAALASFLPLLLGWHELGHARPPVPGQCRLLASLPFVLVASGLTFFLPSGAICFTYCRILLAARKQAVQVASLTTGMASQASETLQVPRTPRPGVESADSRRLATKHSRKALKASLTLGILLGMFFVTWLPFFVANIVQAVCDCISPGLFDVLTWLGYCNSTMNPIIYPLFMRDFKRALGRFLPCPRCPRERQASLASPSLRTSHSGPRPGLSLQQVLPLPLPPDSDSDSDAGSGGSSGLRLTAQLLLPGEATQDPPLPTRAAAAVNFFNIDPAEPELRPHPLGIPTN
Source text: Mol Pharmacol. 43:320-327, 1993]. […] Methiothepin is used as positive control.

[4] = target: T5, recombinant human 5-HT2A receptor (Homo sapiens, UniProt P28223); assay: Radioligand binding to serotonin receptor 5-HT2A ([3H] Ketanserin, CHO-K1 membranes); conditions: 10 µM ligand
T5 construct: expressed in transfected cells; host or cells: CHO-K1
T5 sequence (P28223 whole entry): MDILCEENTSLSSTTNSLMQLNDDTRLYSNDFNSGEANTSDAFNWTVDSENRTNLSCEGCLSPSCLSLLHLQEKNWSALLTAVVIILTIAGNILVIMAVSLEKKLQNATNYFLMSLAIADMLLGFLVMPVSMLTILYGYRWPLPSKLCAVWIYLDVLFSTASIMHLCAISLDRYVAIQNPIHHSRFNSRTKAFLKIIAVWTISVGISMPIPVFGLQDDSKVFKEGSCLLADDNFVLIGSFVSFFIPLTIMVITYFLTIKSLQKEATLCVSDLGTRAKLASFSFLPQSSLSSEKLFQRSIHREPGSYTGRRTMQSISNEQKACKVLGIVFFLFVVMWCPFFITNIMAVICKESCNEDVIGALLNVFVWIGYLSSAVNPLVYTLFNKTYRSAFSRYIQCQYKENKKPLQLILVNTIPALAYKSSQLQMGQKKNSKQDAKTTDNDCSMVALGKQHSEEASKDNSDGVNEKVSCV
Source text: 9-C. […] J Neurochem. […] Ketanserin is used as positive control.

male mice of BALB/c line [5] = assay: Passive Avoidance of mice in the Shuttle Chamber, memory disturbed by Scopolamine; type: in vivo; conditions: Scopolamine 0.3 mg/kg, injected 30 minutes before training; figures 1-3
Description: Example 14. […] A shuttle chamber (Ugo Basile, Italy) consisted of two sections was used. […] The sections were connected through a hole which could be overlapped by a vertical door. The floor was made of transverse metal bars on which DC current impulses could be fed. Experiments were carried out in aged male mice of BALB/c line weighing 20-24 grams.
Each group consisted of at least 8 animals. Animal was placed in light section, and latent period of the first entry into dark chamber was registered. Then the vertical door was closed and the animal was punished by 0.6 mA DC current for 3 seconds. After that it was taken back to its homecage. In 22-24 hours the same animal was placed again in light section of the shuttle chamber and latent period of its first entry into dark section, the total time of its stay in light section, and the number of entries into dark section, were registered. Each monitoring lasted for 5 minutes.
Testing was carried out during the day time in isolated laboratory using white noise at level of about 70 decibel above human hearing threshold.
Scopolamine causes the disturbance of training (memory loss) that results in […].

mice [6] = assay: Tail suspension test; type: in vivo; conditions: dose of 0.05 mg/kg during 4 days; fig. 16
Description: Example 20. Mice behavior in tail suspension test. In the test a mouse was suspended by tail with a sticky tape on the holder over horizontal surface at a height of 40 cm, and during 3 minutes the total time of complete immobility was recorded. Automated computerized detection of motion with videosystem and Any-maze programm were used. After administration of ligand 1.1.2(1-2) (CD-008-0045) in dose of 0.05 mg/kg during 4 days the time of complete immobility of mouse was lowered almost by factor of 2.5 (fig.16), that testifies the cutting of period of depressively-like condition.

mice [7] = assay: Mice Training in Morris Water Maze (Scopolamine); type: in vivo; conditions: unitary introduction of active ingredient; figures 10-13
Description: Example 17. Mice Training in Morris Water Maze. A round pool which was filled with water at 20-22°C was used. A round ceramic platform of 14cm height was placed in the pool. Animals's behavior was registered with automated computer videosystem in combination with software package of movement analysis Any-maze (Stoelting Co., US). Before testing mice suitable for training were selected. That was done by placing the platform 1cm above the water level and putting an animal on the platform for 20 seconds. Then the mouse was sunk into the water on the opposite side of the pool, allowed to find the platform and climbed it […] 60 seconds, where it was left for additional 20 seconds. After that the mouse was repeatedly immersed into water on the opposite side of the pool and allowed to look for platform. If it failed in finding the platform within 60 seconds the experimentator helped it to find the platform and climb it. If the mice could not find the platform itself in two consecutive attempts it was excluded from experiment. During the next two days the platform was placed 0.5 centimeter lower the water level. Every day the mice were given four attempts for finding the platform within 60 seconds. The time interval between the attempts was 20 seconds, during which the mice stayed on the platform. Every day before the first attempt mouse was placed on the platform for 20 seconds. The time needed for finding and climbing the platform was registered. The animals were sunk in water in 3 different places on the side of the pool opposite to platform. On each day of two-day testing 35-40 minutes before the beginning of training the mice were injected intraintestinally with physiological solution, Scopolamine or Scopolamine in combination with investigated compound. At least 8 animals were used in each group. On the third day the platform was removed and each animal was placed one time in the pool for a period of 60 seconds. The time each mouse spent in the area where the platform had been located during the previous days was registered. This time interval was regarded as a measure of effectiveness of training fulfilled during the previous two days. The testing was carried out during the day time in isolated laboratory using "white noise" at level of about 70 decibel above the human hearing threshold.

human D3 receptor = target: T6, human D3 receptor (Homo sapiens, UniProt P35462); assay: Radioligand binding to dopamine receptor D3 ([3H] Spiperone, CHO membranes)
T6 construct: expressed in transfected cells; host or cells: CHO
T6 sequence (P35462 whole entry): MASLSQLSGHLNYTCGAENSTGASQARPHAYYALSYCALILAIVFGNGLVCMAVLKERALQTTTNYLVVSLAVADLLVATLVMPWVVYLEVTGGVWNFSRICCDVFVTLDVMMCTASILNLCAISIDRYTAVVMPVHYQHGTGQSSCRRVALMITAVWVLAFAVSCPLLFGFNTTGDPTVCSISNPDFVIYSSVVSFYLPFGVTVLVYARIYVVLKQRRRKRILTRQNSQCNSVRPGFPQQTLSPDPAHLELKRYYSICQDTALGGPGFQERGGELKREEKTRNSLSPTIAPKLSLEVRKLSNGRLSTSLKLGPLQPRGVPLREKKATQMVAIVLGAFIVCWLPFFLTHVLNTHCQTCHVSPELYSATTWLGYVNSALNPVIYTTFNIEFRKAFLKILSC
Source text: For this purpose sDNA of human D3 receptor is expressed in CHO cells, as it was described in [Sokoloff P, Giros B, Martres M-P, Bouthenet M-L and Schwartz J-C. Molecular cloning and characterization of novel dopamine receptor (D3) as target for neuroleptics. Nature. […] Molecular cloning and characterization of novel dopamine receptor (D3) as target for neuroleptics. Nature. […] Spiperone is used as positive control.

human D4.2 receptor = target: T7, human D4.2 receptor (Homo sapiens, UniProt P21917, DEL265-296); assay: Radioligand binding to dopamine receptor D4.2 ([3H] Spiperone, CHO-K1 membranes); conditions: read-out: Dopamine receptors, % inhibition D4.2
T7 construct: expressed in transfected cells; host or cells: CHO-K1
T7 sequence (P21917 with tags, fused parts or gaps DEL265-296): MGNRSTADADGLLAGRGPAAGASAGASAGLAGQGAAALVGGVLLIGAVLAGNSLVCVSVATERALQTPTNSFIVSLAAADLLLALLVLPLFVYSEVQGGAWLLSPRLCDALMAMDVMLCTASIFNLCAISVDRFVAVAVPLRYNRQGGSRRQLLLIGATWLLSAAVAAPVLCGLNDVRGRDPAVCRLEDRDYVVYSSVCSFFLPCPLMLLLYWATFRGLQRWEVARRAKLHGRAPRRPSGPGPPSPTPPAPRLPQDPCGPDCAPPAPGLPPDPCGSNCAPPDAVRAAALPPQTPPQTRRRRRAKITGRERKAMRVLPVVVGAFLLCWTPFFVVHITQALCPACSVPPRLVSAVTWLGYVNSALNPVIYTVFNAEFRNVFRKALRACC
Description: Screening of the disclosed compounds for potential ability to interact with dopamine receptor D4.2 is carried out by method of radioligand binding. […] From the cells transfected in this way membrane species are prepared by homogenization of these cells in glass homogenizer with the subsequent separation of plasmatic membranes from cell nuclei, mitochondrias and cell wreckages by differential centrifugation. […] After incubation samples are filtered in vacuo on glass-microfiber filters G/F (Millipor, USA), filters are washed three times with cold solution of medium and radioactivity is measured by scintillation counter MicroBeta 340 (Perkin Elmer, USA). Nonspecific binding which makes up 10% of the overall binding is determined by incubation of membrane species with radioligand in the presence of 10 µM of Haloperidol.
Spiperone is used as positive control. Tested compounds' binding to the receptor is determined by their ability to displace radioligand and expressed in percent of displacement (%I). Values of %I are calculated according to the following equation: %I = (TA-CA)/(TA-NA)*100, [formula] wherein: TA - is overall radioactivity in the presence of radioligand only, CA - is radioactivity in the presence of radioligand and tested compound and NA - is radioactivity in the presence of radioligand and Haloperidol (10 µM).

human D1 receptor = target: T8, human D1 receptor (Homo sapiens, UniProt P21728); assay: Radioligand binding to dopamine receptor D1 ([3H] SCH-23390, CHO membranes); conditions: read-out: Dopamine receptors, % inhibition D1
T8 construct: expressed in transfected cells; host or cells: CHO
T8 sequence (P21728 whole entry): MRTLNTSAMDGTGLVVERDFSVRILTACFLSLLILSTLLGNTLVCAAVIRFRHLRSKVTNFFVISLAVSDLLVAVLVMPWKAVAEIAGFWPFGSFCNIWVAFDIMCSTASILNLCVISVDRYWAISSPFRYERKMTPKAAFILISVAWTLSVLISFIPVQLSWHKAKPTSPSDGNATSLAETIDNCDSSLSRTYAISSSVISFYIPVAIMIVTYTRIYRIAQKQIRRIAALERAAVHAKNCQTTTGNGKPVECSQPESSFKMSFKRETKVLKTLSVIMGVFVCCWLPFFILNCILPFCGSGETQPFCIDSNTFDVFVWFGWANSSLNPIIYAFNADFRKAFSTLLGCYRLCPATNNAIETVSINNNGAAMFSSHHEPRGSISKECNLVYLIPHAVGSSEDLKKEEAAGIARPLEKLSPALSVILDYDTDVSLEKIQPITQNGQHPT
Source text: For this purpose sDNA of human D1 receptor is expressed in CHO cells, as it was described in [Dearry A, Gingrich JA, Falardeau P, Fremeau RT Jr, Bates MD and Caron MG. Molecular cloning and expression of the gene for a human D1 dopamine receptor. Nature. […] Nature.

[8] = target: T9, recombinant human 5-HT2C receptor (Homo sapiens, UniProt P28335); assay: Radioligand binding to serotonin receptor 5-HT2C ([3H] Mesulergine, CHO-K1 membranes); conditions: 10 µM ligand
T9 construct: expressed in transfected cells; host or cells: CHO-K1
T9 sequence (P28335 33-458): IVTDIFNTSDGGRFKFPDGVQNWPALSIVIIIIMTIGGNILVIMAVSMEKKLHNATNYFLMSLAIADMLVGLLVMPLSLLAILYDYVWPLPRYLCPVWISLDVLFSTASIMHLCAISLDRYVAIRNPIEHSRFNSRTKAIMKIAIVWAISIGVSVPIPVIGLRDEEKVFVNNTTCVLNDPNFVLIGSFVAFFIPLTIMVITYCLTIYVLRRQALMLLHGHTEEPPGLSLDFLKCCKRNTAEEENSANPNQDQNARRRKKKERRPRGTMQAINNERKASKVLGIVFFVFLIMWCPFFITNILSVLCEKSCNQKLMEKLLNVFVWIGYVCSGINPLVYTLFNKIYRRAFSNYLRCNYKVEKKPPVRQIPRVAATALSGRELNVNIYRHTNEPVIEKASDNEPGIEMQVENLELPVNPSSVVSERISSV
Source text: J Neurochem. 69: 1449 - 1458, 1997]. […] SB242084 is used as positive control.

male mice of BALB/c line [9] = assay: Mice Behavior in the Elevated Plus Maze; type: in vivo; conditions: doses of 0,05 and 0,1 mg/kg
Source text: Example 16. […] The length of each arm of the maze was 30cm, width is 5cm, and height of the walls was 15cm. Two opposite arms were closed from both sides and end faces by transparent walls, the other two arms were lit and opened. A mouse was placed in the center of the maze and for the next five minutes the number of entries into opened and closed arms and the time spent in each type of arms was registered. […] The animals usually avoided opened arms (the preference index is between 0.2 and 0.3). Compounds with tranquilizing action increased this index up to 0.5-0.6 or even more and reduced the number of defecations without changing the overall motion activity of the mice (the total number of their entries to the arms).

imidazoline receptor I2 = assay: Radioligand binding to imidazoline receptor I2 ([3H] Idazoxan, rat brain membranes); conditions: 10 µM ligand
Description: For this purpose membrane species are prepared from rat (Wistar) brain homogenates by homogenization of them in glass homogenizer with the subsequent separation of plasmatic membranes from cell nuclei, mitochondrias and cell wreckages by differential centrifugation. […] After incubation the samples are filtered in vacuo on glass-microfiber filters G/F (Millipor, USA), filters are washed three times with cold solution of medium and radioactivity is measured by scintillation counter MicroBeta 340 (Perkin Elmer, USA). […] Idazoxan is used as positive control.
The tested compounds' binding to the receptor is determined by their ability to displace the radioligand and expressed in percent of displacement (%I). Values of %I are calculated according to the following equation: %I = (TA-CA)/(TA-NA)*100, [formula] wherein: TA - is the overall radioactivity in the presence of radioligand only, CA - is the radioactivity in the presence of radioligand and tested compound and NA - is a radioactivity in the presence of radioligand and Idazoxan (1 µM).

Cc1ccc2c(c1)c1c(n2CCc2ccncc2)CCN(C)C1 [1.1.2(5-2)·2HCl]
inhibition at 10 µM ([1]; read-out: 5-HT1B % inhibition): 14%
inhibition at 10 µM (recombinant human 5-HT1A): 17%
inhibition at 10 µM ([2]; read-out: 5-HT2B % inhibition): 80%
inhibition at 10 µM [3]: 91%
inhibition at 10 µM [4]: 88%
enhancement of memory disturbed by Scopolamine (male mice of BALB/c line [5]): improve memory

Cc1ccc2c(c1)c1c(n2CCc2ccccc2)CCN(C)C1 [1.1.2(1-2), 2,8-dimethyl-5-phenethyl-1,2,3,4-tetrahydro-1H-pyrido[4,3-b]indole]
time of complete immobility, lowered by factor (mice [6]): ~2.5
memory disorders caused by Scopolamine (time spent in area of the platform) (mice [7]): decreasing memory disorders
enhancement of memory disturbed by Scopolamine (male mice of BALB/c line [5]): improve memory

Cc1ccc2c(c1)c1c(n2CCc2ccccc2)CCN(C)C1 [1.1.2(1-2) ·2HCl]
IC50 (human D3 receptor): 0.256 µM
Ki (human D3 receptor; Receptor D3): 0.868 µM
nH (human D3 receptor; Receptor D3): 0.797
inhibition at 10 µM (human D3 receptor; read-out: Dopamine receptors, % inhibition D3): 99%
inhibition at 10 µM (human D4.2 receptor): 103%
inhibition at 10 µM (human D1 receptor): 89%

Cc1ccc2c(c1)c1c(n2/C=C\c2ccccc2)CCN(C)C1 [1.1(6)]
5-HT1B % inhibition ([1]; 10 µM ligand): 86%
5-HT2B % inhibition ([2]; 10 µM ligand): 98%
5-HT2C % inhibition [8]: 101%
5-HT2A % inhibition [4]: 100%
enhancement of memory disturbed by Scopolamine (male mice of BALB/c line [5]): improve memory

Cc1ccc2c(c1)c1c(n2CCc2ccc(C)nc2)CCN(C)C1.Cl.Cl [1.1.2(4-2)]
Anxiolytic (tranquilizing) action (male mice of BALB/c line [9]): exhibit analogous action
memory disorders caused by Scopolamine (time spent in area of the platform) (mice [7]): decreasing memory disorders
enhancement of memory disturbed by Scopolamine (male mice of BALB/c line [5]): improve memory

Cc1ccc2c(c1)[C@H]1CN(C)CCC[C@@H]1N2CCc1ccc(C)nc1 (relative stereo) [1.6.2(11)]
inhibition at 10 µM (human D4.2 receptor): 6%
% inhibition (imidazoline receptor I2): 83%

Cc1ccc2c(c1)c1c(n2CCc2ccncc2)CCCN(C)C1 [1.2.2(5-3)·2HCl]
memory disorders caused by Scopolamine (time spent in area of the platform) (mice [7]): decreasing memory disorders
